Measured values reported in patent publication US4427587A, “Total synthesis of antitumor antibiotics BBM-2040A and BBM-2040B” (Bristol-Myers Company, priority 1982, dated 1984).
≈ marks a conversion by molar mass, not a printed value.

Experiments:
lymphatic leukemia P388 = test: antitumor activity against P388 leukemia in mice, second experiment (Table 7); type: in vivo, male BDF1 mice; conditions: QD 1→9; for Effect MST % T/C: ≥ 125 significant; for antitumor activity in second P388 experiment (in words): i.p., epimer: 1 mg/kg/day, the highest dose tested
Experimental: In this experiment lymphatic leukemia P388 was implanted intraperitoneally into male BDF1 mice at an inoculum size of 10^6 cells per mouse. Test compounds were dissolved in 0.9% saline containing 10% dimethylsulfoxide. Graded doses of test compounds were administered to mice intraperitoneally 24 hours after the tumor implantation, and the treatment was continued once daily for 9 days.
Tumor inoculum: 10^6 ascites cells implanted i.p.
Treatment: QD 1→9, i.p.
Evaluation: MST = median survival time
Effect: % T/C = (MST treated/MST control) × 100
Criteria: % T/C ≥ 125 considered as significant antitumor activity

[1] = system: lymphocytic leukemia P388; test: antitumor activity against lymphocytic leukemia P388 in mice (Table 6); type: in vivo, mice (BDF1 strain); conditions: qd 1→9
Experimental: The antitumor activity of BBM-2040A and B was determined in mice (BDF1 strain) against lymphocytic leukemia P388. Each mouse was inoculated intraperitoneally with 10^6 cells of tumor. Graded doses of test compounds were administered to mice intraperitoneally 24 hours after the tumor implantation. The treatments were given once daily for 9 days (qd 1→9 schedule). Neothramycin was comparatively tested as a reference compound.
*ratio of median survival time of test and control animals
**circle indicates significant antitumor effect.

[2] = system: gram-positive, gram-negative and acid-fast bacteria; test: antibacterial activity / spectrum; type: cell-based; conditions: Streptococcus pyogenes, Micrococcus luteus, Micrococcus flavus and Mycobacterium strains
Experimental: (§1) The minimum inhibitory concentration (MIC) of BBM-2040 was determined for a variety of gram-positive, gram-negative and acid-fast bacteria by the serial two-fold agar dilution method. Nutrient agar medium was used for gram-positive and gram-negative organisms and No. 1001 medium (3% glycerol, 0.3% sodium L-glutamate, 0.2% peptone, 0.31% Na2 HPO4, 0.1% KH2 PO4, 0.005% ammonium citrate, 0.001% MgSO4 and 1.5% agar) for acid-fast organisms.

Escherichia coli NIHJ = test: MIC, serial two-fold agar dilution method; type: cell-based; conditions: Escherichia coli NIHJ; read-out: MIC
Experimental: as §1

[3] = system: Streptococcus pyogenes PCI 1001; test: MIC, serial two-fold agar dilution method; type: cell-based; conditions: PCI1001; Streptococcus pyogenes PCI 1001; read-out: MIC
Experimental: as §1

[4] = system: Streptococcus pyogenes A20201; test: MIC, serial two-fold agar dilution method; type: cell-based; conditions: read-out: MIC
Experimental: as §1

[5] = system: Staphylococcus aureus Smith; test: MIC, serial two-fold agar dilution method; type: cell-based; conditions: Staphylococcus aureus Smith; read-out: MIC
Experimental: as §1

Mycobacterium phlei D88 = test: MIC, serial two-fold agar dilution method; type: cell-based; conditions: Mycolicibacterium phlei; Mycobacterium phlei D88; No. 1001 medium; read-out: MIC
Experimental: as §1

[6] = system: Mycobacterium smegmatis 607; test: MIC, serial two-fold agar dilution method; type: cell-based; conditions: Mycolicibacterium smegmatis; Mycobacterium smegmatis 607; No. 1001 medium; read-out: MIC
Experimental: as §1

Micrococcus flavus D12 = test: MIC, serial two-fold agar dilution method; type: cell-based; conditions: read-out: MIC
Experimental: as §1

[7] = system: Staphylococcus aureus FDA 209P; test: MIC, serial two-fold agar dilution method; type: cell-based; conditions: FDA209P; Staphylococcus aureus FDA 209P; read-out: MIC
Experimental: as §1

[8] = system: Bacillus subtilis PCI 219; test: MIC, serial two-fold agar dilution method; type: cell-based; conditions: PCI219; Bacillus subtilis PCI 219; read-out: MIC
Experimental: as §1

[9] = system: Klebsiella pneumoniae D-11; test: MIC, serial two-fold agar dilution method; type: cell-based; conditions: D11; Klebsiella pneumoniae D-11; read-out: MIC
Experimental: as §1

[10] = system: Pseudomonas aeruginosa A9930; test: MIC, serial two-fold agar dilution method; type: cell-based; conditions: read-out: MIC
Experimental: as §1

Escherichia coli Juhl = test: MIC, serial two-fold agar dilution method; type: cell-based; conditions: Escherichia coli Juhl; read-out: MIC
Experimental: as §1

Proteus vulgaris A9436 = test: MIC, serial two-fold agar dilution method; type: cell-based; conditions: read-out: MIC
Experimental: as §1

With `COc1cc2c(cc1O)N[C@H](OC)[C@@H]1C[C@@H](O)CN1C2=O` [2β-Hydroxy epimer of BBM-2040 A] the Average weight change (lymphatic leukemia P388; 0.03 mg/kg/day i.p.) was “+1.0 g”, the MST (lymphatic leukemia P388; 0.03 mg/kg/day i.p.) was 10.5 days and the “Survivors Day 5” value (lymphatic leukemia P388; 0.03 mg/kg/day i.p.) was 6/6. The “Survivors Day 22” value (lymphatic leukemia P388; 0.03 mg/kg/day i.p.) was 0/6, the “Effect MST % T/C” value (lymphatic leukemia P388; 0.03 mg/kg/day i.p.) was 88% and the Average weight change (lymphatic leukemia P388; 0.1 mg/kg/day i.p.) was “+1.3 g”. The MST (lymphatic leukemia P388; 0.1 mg/kg/day i.p.) was 11.0 days, the “Survivors Day 5” value (lymphatic leukemia P388; 0.1 mg/kg/day i.p.) was 6/6 and the “Survivors Day 22” value (lymphatic leukemia P388; 0.1 mg/kg/day i.p.) was 0/6. The “Effect MST % T/C” value (lymphatic leukemia P388; 0.1 mg/kg/day i.p.) was 92%, the Average weight change (lymphatic leukemia P388; 0.3 mg/kg/day i.p.) was “+1.8 g” and the MST (lymphatic leukemia P388; 0.3 mg/kg/day i.p.) was 11.0 days. The “Survivors Day 5” value (lymphatic leukemia P388; 0.3 mg/kg/day i.p.) was 6/6, the “Survivors Day 22” value (lymphatic leukemia P388; 0.3 mg/kg/day i.p.) was 0/6 and the “Effect MST % T/C” value (lymphatic leukemia P388; 0.3 mg/kg/day i.p.) was 92%. The Average weight change (lymphatic leukemia P388; 1 mg/kg/day i.p.) was “+1.0 g”, the MST (lymphatic leukemia P388; 1 mg/kg/day i.p.) was 12.0 days and the “Survivors Day 5” value (lymphatic leukemia P388; 1 mg/kg/day i.p.) was 6/6. For the same compound, the “Survivors Day 22” value (lymphatic leukemia P388; 1 mg/kg/day i.p.) was 0/6, the “Effect MST % T/C” value (lymphatic leukemia P388; 1 mg/kg/day i.p.) was 100% and the “antitumor activity in second P388 experiment (in words)” value (lymphatic leukemia P388) was “inactive”.
For `COc1cc2c(cc1O)N[C@H](OC)[C@@H]1C[C@H](O)CN1C2=O` [BBM-2040A, 2(S),11(R),11a(S)-1,2,3,10,11,11a-Hexahydro-2,8-dihydroxy-7,11-dimethoxy-5H-pyrrolo-[2,1-c][1,4]benzodiazepin-5-one], the “T/C (%) in MST” value ([1]; 0.1 mg/kg/day ip) was 96%, the “T/C (%) in MST” value ([1]; 0.3 mg/kg/day ip) was 104% and the “antitumor activity in P388 experiment (comparison)” value ([1]; ip) was “similarly active”. For the same compound, the solubility (solubility; benzene, chloroform and n-hexane) was “practically insoluble”, the solubility (solubility; ethyl acetate, acetone and water) was “slightly soluble” and the solubility (solubility; methanol ethanol, n-butanol and pyridine) was “readily soluble”. The Average weight change (lymphatic leukemia P388; 0.1 mg/kg/day i.p.) was “+1.5 g”, the MST (lymphatic leukemia P388; 0.1 mg/kg/day i.p.) was 12.0 days and the “Effect MST % T/C” value (lymphatic leukemia P388; 0.1 mg/kg/day i.p.) was 100%. For the same compound, the Average weight change (lymphatic leukemia P388; 0.3 mg/kg/day i.p.) was “+1.3 g”, the MST (lymphatic leukemia P388; 0.3 mg/kg/day i.p.) was 14.0 days and the “Effect MST % T/C” value (lymphatic leukemia P388; 0.3 mg/kg/day i.p.) was 117%. For the same compound, the MST (lymphatic leukemia P388; 1 mg/kg/day i.p.) was 16.0 days, the “Effect MST % T/C” value (lymphatic leukemia P388; 1 mg/kg/day i.p.) was 133% and the Average weight change (lymphatic leukemia P388; 3 mg/kg/day i.p.) was “+0.5 g”. For the same compound, the MST (lymphatic leukemia P388; 3 mg/kg/day i.p.) was 17.0 days, the “Survivors Day 5” value (lymphatic leukemia P388; 3 mg/kg/day i.p.) was 6/6 and the “Survivors Day 22” value (lymphatic leukemia P388; 3 mg/kg/day i.p.) was 0/6. For the same compound, the “Effect MST % T/C” value (lymphatic leukemia P388; 3 mg/kg/day i.p.) was 142%, the Average weight change (lymphatic leukemia P388; 10 mg/kg/day i.p.) was -2.2 g and the MST (lymphatic leukemia P388; 10 mg/kg/day i.p.) was 19.5 days. For the same compound, the “Survivors Day 5” value (lymphatic leukemia P388; 10 mg/kg/day i.p.) was 6/6, the “Survivors Day 22” value (lymphatic leukemia P388; 10 mg/kg/day i.p.) was 1/6 and the “Effect MST % T/C” value (lymphatic leukemia P388; 10 mg/kg/day i.p.) was 163%. The “antitumor activity in second P388 experiment (in words)” value (lymphatic leukemia P388) was “similarly active”, the antibacterial activity [2] was “weak antibacterial activity” and the MIC (Escherichia coli NIHJ) was greater than 100 µg/mL. For the same compound, the MIC [3] was 50 µg/mL (≈ 170 µM), the MIC [4] was 50 µg/mL (≈ 170 µM) and the MIC [5] was greater than 100 µg/mL. For the same compound, the MIC (Mycobacterium phlei D88) was 100 µg/mL (≈ 340 µM), the MIC [6] was 100 µg/mL (≈ 340 µM) and the MIC (Micrococcus flavus D12) was 50 µg/mL (≈ 170 µM). For the same compound, the MIC [7] was greater than 100 µg/mL, the MIC [8] was greater than 100 µg/mL and the MIC [9] was greater than 100 µg/mL. It also gave an MIC [10] greater than 100 µg/mL, an MIC (Escherichia coli Juhl) greater than 100 µg/mL and an MIC (Proteus vulgaris A9436) greater than 100 µg/mL.
